# Reference: patent publication US10758549B2, “Compositions of obeticholic acid and methods of use” (Intercept Pharmaceuticals, Inc., priority 2015, dated 2020)
# Experiments:
# Surface area by BET = assay type: physicochemical
# Method: The impact of jet-milling on API particle size and surface area is detailed in Table 4-1 and Table 4-2, respectively. Surface area was tested per a BET (Brunauer, Emmett, and Teller theory). The BET method for analyzing surface area is based on adsorption of gas on a surface. The amount of gas adsorbed at a given pressure allows a determination of the surface area.
# [1] = Physiologic pharmacokinetic model of OCA (population PK fit and simulations); set-up: species or system human
# Method: Plasma levels of OCA and its conjugates were measured in healthy subjects and cirrhotic patients with varying degrees of hepatic impairment. A physiologic pharmacokinetic model for OCA was developed to quantitatively describe the absorption, distribution, metabolism, and excretion of OCA in patients with and without hepatic impairment. The model was based on a published multi-compartment PK model for CDCA, and consisted of systemic, hepatobiliary, and intestinal systems. The model was used to simulate the pathophysiological abnormalities caused by cirrhosis including decreased hepatic uptake, portal-systemic shunting, decreased liver volume, and differences in amino acid conjugation.
# This examples describes development of a physiologic PK model to quantitatively describe the absorption, distribution, metabolism, and excretion of OCA. In addition, the model was used to define the effects of hepatic impairment to predict the systemic and liver exposure to OCA in subjects with various degrees of liver impairment relative to healthy subjects with normal liver function. The model was developed based on 3 studies in healthy volunteers and 2 studies in patients with varying degrees of hepatic impairment […].
# Data from was used to develop the model in healthy subjects (n=160) and then adjust for hepatic impairment (n=32) using the data from the above Examples. After development, the model was validated with data sourced from healthy subjects and cirrhotic patients.
# The data used in model development included subject identifiers, time of dosing and sample collection, plasma drug concentrations (OCA, glyco-OCA, and tauro-OCA), dose amount, disease status (e.g., Child-Pugh score), and meal consumption information. Study participants received standardized meals at specified times during inpatient observation. Gallbladder contraction was assumed to last 90 minutes after the start of a meal. Drug concentrations below the limit of quantification (BLQ) were imputed to half of the lower limit of quantification (LLOQ). Observed and BLQ concentrations of OCA, glyco-OCA, and tauro-OCA associated with samples drawn prior to the first dose were excluded from the analyses.
# A number of structural modifications were made to the base CDCA model in order to adapt it for use with OCA. For simplification, a single space was used to represent the gut (small and large intestines). Since OCA is an exogenous molecule, it was assumed that there was no endogenous synthesis and an absorption compartment with a first-order transfer coefficient (Ka) was included to represent the administration and absorption kinetics of an oral OCA dose. Based on steric hindrance by the 6-ethyl group of OCA, no bacterial 7-alpha dehydroxylation biotransformation activity (i.e., CDCA to lithocholic acid) was included in the model. Compartment volumes in the model were fixed to physiological values from the base CDCA model. The OCA model used the physiological flow values for blood, bile and gastrointestinal transit from the original physiologic PK model for CDCA, with the exception of flows from bile duct to gallbladder and from bile duct to gut. The physiological values from the base model led to poor predictions and may not be applicable due to the simplification of the enteral system into a unified gut compartment. The biotransformation and transport rates in the model, being dependent on chemical entity structure, were estimated by fitting the model to the plasma concentration time profiles of OCA, glyco-OCA, and tauro-OCA.
# The PK model was first developed using the OCA, glyco-OCA, and tauro-OCA plasma concentration time profiles from healthy volunteers with normal hepatic function. Model parameter estimates related to healthy physiology were then held constant while the PK model was further developed using OCA, glyco-OCA, and tauro-OCA plasma concentration time profiles from patients with hepatic impairment (Child-Pugh scores A, B, and C). […]
# [2] = exponent on t10, model estimate
# [3] = normal hepatic function, model estimate
smiles,measurement,setting,value
"CC[C@H]1[C@@H](O)[C@@H]2[C@H](CC[C@]3(C)[C@@H]([C@H](C)CCC(=O)O)CC[C@@H]23)[C@@]2(C)CC[C@@H](O)C[C@@H]12 [OCA, 3α,7α-dihydroxy-6α-ethyl-5β-cholan-24-oic acid]",surface area increase after jet-milling,Surface area by BET,approximately 3 fold
same,Effect in Mild hepatic impairment in hepatic uptake of OCA and conjugates,[1]; [2],−0.132
same,Effect in Moderate hepatic impairment in hepatic uptake of OCA and conjugates,[1]; [2],−1.86
same,Effect in Severe hepatic impairment in hepatic uptake of OCA and conjugates,[1]; [2],−2.37
same,Effect of Mild hepatic impairment on OCA tauro-conjugation,"[1]; exponent, model estimate",0.00481
same,Effect of Moderate hepatic impairment on OCA tauro-conjugation,"[1]; exponent, model estimate",1.05
same,Effect of Severe hepatic impairment on OCA tauro-conjugation,"[1]; exponent, model estimate",1.56
same,Ka: OCA first order rate constant of oral absorption,[1]; [3],5.32 h⁻¹
same,b16: OCA rate of conjugation with glycine,[1]; [3],1.44 h⁻¹
same,b18: OCA rate of conjugation with taurine,[1]; [3],0.312 h⁻¹
same,kout: Rate of fecal elimination of OCA,[1]; [3],0.612 L/h
same,t10: OCA transport rate from liver to sinusoidal space,[1]; [3],1698 h⁻¹
same,t34: OCA rate of absorption from gut to portal space,[1]; [3],0.857 h⁻¹
